Read-outs that look alike come from different tables or passages of the source. Positions of bridges follow the written chain, without caps; N, C: chain ends. Residues, ends and D or L forms follow the SMILES beside them.
What was measured:
[1] = biological target: hNav1.3 (Homo sapiens, UniProt Q9NY46); test: cell-based; settings: IonWorks Quattro, read-out: IWQ Use Nav1.3
[2] = biological target: hNav1.7 (Homo sapiens, UniProt Q15858); test: cell-based; assay type: cell-based; settings: read-out: IWQ Use Nav1.7
hNav1.7, sequence (Q15858 whole entry, looked up): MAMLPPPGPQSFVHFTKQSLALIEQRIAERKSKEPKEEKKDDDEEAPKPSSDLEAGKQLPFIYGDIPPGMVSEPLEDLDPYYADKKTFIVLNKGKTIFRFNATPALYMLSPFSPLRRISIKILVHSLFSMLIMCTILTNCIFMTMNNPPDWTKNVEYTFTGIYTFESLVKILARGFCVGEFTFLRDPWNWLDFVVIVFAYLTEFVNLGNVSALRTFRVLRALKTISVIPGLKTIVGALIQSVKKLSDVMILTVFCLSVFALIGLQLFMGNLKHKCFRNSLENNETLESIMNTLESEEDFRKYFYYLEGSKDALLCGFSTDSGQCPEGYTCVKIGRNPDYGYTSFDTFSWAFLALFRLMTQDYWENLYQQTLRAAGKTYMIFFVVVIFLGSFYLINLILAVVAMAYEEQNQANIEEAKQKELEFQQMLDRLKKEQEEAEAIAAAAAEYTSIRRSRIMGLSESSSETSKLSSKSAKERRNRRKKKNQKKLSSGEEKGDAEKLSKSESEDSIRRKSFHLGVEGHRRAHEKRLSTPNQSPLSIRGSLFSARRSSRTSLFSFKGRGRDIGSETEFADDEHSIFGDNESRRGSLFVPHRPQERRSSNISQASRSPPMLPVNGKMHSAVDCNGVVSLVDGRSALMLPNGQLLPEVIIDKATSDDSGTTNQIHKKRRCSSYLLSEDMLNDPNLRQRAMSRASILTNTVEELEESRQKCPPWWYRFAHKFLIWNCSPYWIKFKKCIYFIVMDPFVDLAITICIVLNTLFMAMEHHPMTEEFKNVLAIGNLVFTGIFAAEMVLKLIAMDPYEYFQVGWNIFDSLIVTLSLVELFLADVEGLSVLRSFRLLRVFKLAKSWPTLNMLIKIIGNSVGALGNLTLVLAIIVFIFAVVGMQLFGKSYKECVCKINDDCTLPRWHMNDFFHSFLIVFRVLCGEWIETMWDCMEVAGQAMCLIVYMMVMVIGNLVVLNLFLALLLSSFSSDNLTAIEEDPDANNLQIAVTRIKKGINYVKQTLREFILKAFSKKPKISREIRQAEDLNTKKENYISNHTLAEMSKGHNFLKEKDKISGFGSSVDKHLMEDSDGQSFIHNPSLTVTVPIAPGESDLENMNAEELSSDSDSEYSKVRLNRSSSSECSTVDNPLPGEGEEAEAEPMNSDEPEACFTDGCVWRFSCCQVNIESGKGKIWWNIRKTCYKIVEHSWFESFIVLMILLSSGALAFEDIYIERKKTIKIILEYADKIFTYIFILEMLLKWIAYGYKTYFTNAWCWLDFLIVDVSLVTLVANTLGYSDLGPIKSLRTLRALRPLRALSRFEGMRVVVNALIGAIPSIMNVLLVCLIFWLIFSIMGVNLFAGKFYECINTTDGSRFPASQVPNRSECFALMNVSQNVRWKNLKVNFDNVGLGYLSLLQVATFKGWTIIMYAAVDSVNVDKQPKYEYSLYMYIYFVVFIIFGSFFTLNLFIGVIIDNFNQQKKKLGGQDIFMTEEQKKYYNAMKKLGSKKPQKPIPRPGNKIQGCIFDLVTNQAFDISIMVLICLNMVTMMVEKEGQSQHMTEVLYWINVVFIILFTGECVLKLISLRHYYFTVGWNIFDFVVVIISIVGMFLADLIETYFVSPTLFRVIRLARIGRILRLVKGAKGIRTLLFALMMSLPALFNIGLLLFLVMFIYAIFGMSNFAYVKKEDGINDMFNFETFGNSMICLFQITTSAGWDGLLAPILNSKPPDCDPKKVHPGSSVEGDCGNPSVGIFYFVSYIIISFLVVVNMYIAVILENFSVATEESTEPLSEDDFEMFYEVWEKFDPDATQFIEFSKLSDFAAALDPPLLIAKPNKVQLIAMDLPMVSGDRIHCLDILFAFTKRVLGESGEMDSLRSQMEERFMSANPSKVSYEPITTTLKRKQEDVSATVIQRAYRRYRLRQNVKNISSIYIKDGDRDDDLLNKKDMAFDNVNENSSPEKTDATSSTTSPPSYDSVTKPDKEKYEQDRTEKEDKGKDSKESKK

hNav1.3, sequence (Q9NY46 whole entry, looked up): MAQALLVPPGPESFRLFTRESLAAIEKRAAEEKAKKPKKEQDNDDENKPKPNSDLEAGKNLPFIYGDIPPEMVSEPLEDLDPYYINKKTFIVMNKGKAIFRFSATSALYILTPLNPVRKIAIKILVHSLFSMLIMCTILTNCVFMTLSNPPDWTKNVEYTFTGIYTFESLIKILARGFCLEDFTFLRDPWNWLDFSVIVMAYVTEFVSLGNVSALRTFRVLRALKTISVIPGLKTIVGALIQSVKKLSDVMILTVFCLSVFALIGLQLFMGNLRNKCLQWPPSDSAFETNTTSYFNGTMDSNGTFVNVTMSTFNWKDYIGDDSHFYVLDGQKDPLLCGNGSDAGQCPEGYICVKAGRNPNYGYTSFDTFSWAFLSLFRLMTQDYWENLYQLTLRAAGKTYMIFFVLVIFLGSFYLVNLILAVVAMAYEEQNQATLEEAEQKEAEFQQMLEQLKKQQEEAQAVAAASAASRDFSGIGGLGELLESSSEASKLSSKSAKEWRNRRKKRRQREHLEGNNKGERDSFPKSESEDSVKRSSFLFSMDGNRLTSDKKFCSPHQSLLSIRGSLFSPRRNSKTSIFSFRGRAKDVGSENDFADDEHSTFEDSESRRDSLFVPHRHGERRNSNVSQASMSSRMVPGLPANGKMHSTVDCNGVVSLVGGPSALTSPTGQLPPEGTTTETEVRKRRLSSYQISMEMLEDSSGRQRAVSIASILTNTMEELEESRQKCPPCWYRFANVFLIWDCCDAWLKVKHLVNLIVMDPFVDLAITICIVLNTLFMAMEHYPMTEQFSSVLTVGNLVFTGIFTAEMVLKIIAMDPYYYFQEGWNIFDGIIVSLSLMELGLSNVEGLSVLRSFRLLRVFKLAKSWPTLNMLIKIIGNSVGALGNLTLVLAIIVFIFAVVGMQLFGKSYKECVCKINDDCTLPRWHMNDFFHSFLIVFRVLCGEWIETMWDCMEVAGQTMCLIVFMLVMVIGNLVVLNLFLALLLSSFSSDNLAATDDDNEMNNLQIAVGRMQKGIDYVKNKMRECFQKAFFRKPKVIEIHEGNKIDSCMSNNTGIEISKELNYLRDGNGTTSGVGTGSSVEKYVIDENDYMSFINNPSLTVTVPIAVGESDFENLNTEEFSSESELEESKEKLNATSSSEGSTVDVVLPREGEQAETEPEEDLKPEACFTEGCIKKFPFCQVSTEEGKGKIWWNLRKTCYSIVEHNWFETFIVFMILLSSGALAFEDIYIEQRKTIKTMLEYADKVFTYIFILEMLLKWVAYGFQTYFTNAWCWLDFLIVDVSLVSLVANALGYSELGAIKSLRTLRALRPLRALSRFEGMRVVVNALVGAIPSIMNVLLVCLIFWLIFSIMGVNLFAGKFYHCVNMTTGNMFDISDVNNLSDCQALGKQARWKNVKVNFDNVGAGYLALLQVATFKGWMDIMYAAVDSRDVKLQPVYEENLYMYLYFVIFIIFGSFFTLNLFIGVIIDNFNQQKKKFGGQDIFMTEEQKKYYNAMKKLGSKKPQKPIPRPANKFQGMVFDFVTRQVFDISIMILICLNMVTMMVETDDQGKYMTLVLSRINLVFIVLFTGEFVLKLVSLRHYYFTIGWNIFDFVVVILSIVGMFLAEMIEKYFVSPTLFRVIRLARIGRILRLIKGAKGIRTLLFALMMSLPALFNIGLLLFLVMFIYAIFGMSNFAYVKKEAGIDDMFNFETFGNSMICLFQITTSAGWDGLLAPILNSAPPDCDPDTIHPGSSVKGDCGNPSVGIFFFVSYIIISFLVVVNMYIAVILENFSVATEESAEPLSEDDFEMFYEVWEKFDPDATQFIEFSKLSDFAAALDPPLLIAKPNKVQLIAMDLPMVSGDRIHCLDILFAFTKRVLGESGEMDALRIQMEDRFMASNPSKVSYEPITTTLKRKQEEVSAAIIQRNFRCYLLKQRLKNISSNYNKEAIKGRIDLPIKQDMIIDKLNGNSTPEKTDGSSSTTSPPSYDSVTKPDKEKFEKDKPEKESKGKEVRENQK

Compound `CC[C@H](C)[C@@H]1NC(=O)[C@@H]2CSSC[C@@H]3NC(=O)[C@H](C(C)C)NC(=O)[C@H](CC(C)C)NC(=O)[C@H](CC(N)=O)NC(=O)[C@@H]4CCCN4C(=O)[C@H](CCCNC(=N)N)NC(=O)[C@H](CSSC[C@H](NC(=O)[C@@H](N)CC(=O)O)C(=O)N[C@@H](CC(C)C)C(=O)NCC(=O)N[C@@H](Cc4ccccc4)C(=O)N[C@@H](CCSC)C(=O)N[C@@H](CCCNC(=N)N)C(=O)N[C@@H](CCCCN)C(=O)N2)NC(=O)[C@H](CSSC[C@@H](C(=O)N[C@@H](CCCCN)C(=O)N[C@@H](Cc2ccc(O)cc2)C(=O)N[C@H](C(=O)N[C@@H](Cc2ccccc2)C(N)=O)C(C)C)NC(=O)[C@H](Cc2c[nH]c4ccccc24)NC(=O)[C@H](CCCCN)NC(=O)[C@H](Cc2cnc[nH]2)NC(=O)[C@H](Cc2cnc[nH]2)NC(=O)[C@H](CCCNC(=N)N)NC(=O)[C@H](CO)NC3=O)NC(=O)[C@H](CCCCN)NC(=O)[C@H](CC(=O)O)NC(=O)[C@H](CC(N)=O)NC(=O)[C@H](CC(=O)O)NC(=O)[C@@H]2CCCN2C1=O` [compound 337] (H-DCLGFMRKCIPDNDKCCRPNLVCSRHHKWCKYVF-NH2; disulfide 2-17, 9-23, 16-30) has an IC50 ([1]; Table 22, use, […]) of 0.08 µM and an IC50 ([2]; Table 22, IonWorks Quattro, use, […]) of 0.1 µM.

In the case of `CC[C@H](C)[C@@H]1NC(=O)[C@@H]2CSSC[C@@H]3NC(=O)[C@H](C(C)C)NC(=O)[C@H](CC(C)C)NC(=O)[C@H](CC(N)=O)NC(=O)[C@@H]4CCCN4C(=O)[C@H](CCCNC(=N)N)NC(=O)[C@H](CSSC[C@H](NC(=O)[C@@H](N)CC(=O)O)C(=O)N[C@@H](CC(C)C)C(=O)NCC(=O)N[C@@H](Cc4ccccc4)C(=O)N[C@@H](CCSC)C(=O)N[C@@H](CCCNC(=N)N)C(=O)N[C@@H](CCCCN)C(=O)N2)NC(=O)[C@H](CSSC[C@@H](C(=O)N[C@@H](CCCCN)C(=O)N[C@@H](CCC(=O)O)C(=O)N[C@H](C(=O)N[C@@H](Cc2ccccc2)C(N)=O)C(C)C)NC(=O)[C@H](Cc2c[nH]c4ccccc24)NC(=O)[C@H](CCCCN)NC(=O)[C@H](Cc2cnc[nH]2)NC(=O)[C@H]([C@@H](C)O)NC(=O)[C@H](CCCNC(=N)N)NC(=O)[C@H](CO)NC3=O)NC(=O)[C@H](CCCCN)NC(=O)[C@H](CC(=O)O)NC(=O)[C@H](CC(N)=O)NC(=O)[C@H](CC(=O)O)NC(=O)[C@@H]2CCCN2C1=O` [compound 32] (H-DCLGFMRKCIPDNDKCCRPNLVCSRTHKWCKEVF-NH2; disulfide 2-17, 9-23, 16-30), the IC50 ([1]; Table 25, use, […]) is reported as 9.14 µM and the IC50 ([2]; Table 25, IonWorks Quattro, use, […]) is reported as 13.9 µM.

In the case of `CC[C@H](C)[C@@H]1NC(=O)[C@@H]2CSSC[C@@H]3NC(=O)[C@H](C(C)C)NC(=O)[C@H](CC(C)C)NC(=O)[C@H](CC(N)=O)NC(=O)[C@@H]4CCCN4C(=O)[C@H](CCCNC(=N)N)NC(=O)[C@H](CSSC[C@H](NC(=O)[C@@H](N)CC(=O)O)C(=O)N[C@@H](CC(C)C)C(=O)NCC(=O)N[C@@H](Cc4ccccc4)C(=O)N[C@@H](CCSC)C(=O)N[C@@H](CCCNC(=N)N)C(=O)N[C@@H](CCCCN)C(=O)N2)NC(=O)[C@H](CSSC[C@@H](C(=O)N[C@@H](CCCCN)C(=O)N[C@@H](Cc2ccc(O)cc2)C(=O)N[C@H](C(=O)N[C@@H](Cc2ccccc2)C(N)=O)C(C)C)NC(=O)[C@H](Cc2c[nH]c4ccccc24)NC(=O)[C@H](CCCCN)NC(=O)[C@H](Cc2c[nH]c4ccccc24)NC(=O)[C@H]([C@@H](C)O)NC(=O)[C@H](CCCNC(=N)N)NC(=O)[C@H](CO)NC3=O)NC(=O)[C@H](CCCCN)NC(=O)[C@H](CC(=O)O)NC(=O)[C@H](CC(N)=O)NC(=O)[C@H](CC(=O)O)NC(=O)[C@@H]2CCCN2C1=O` [compound 84] (H-DCLGFMRKCIPDNDKCCRPNLVCSRTWKWCKYVF-NH2; disulfide 2-17, 9-23, 16-30), the IC50 ([1]; Table 23, use, […]) is reported as 0.59 µM and the IC50 ([2]; Table 23, IonWorks Quattro, use, […]) is reported as 0.32 µM.

Work on `CC[C@H](C)[C@@H]1NC(=O)[C@@H]2CSSC[C@@H]3NC(=O)[C@H](C(C)C)NC(=O)[C@H](CC(C)C)NC(=O)[C@H](CC(N)=O)NC(=O)[C@@H]4CCCN4C(=O)[C@H](CCCNC(=N)N)NC(=O)[C@H](CSSC[C@H](NC(=O)[C@@H](N)CC(=O)O)C(=O)N[C@@H](CC(C)C)C(=O)NCC(=O)NC(C)(C)C(=O)N[C@@H](CC(C)C)C(=O)N[C@@H](CCCNC(=N)N)C(=O)N[C@@H](CCCCN)C(=O)N2)NC(=O)[C@H](CSSC[C@@H](C(=O)N[C@@H](CCCCN)C(=O)N[C@@H](Cc2ccc(O)cc2)C(=O)N[C@H](C(=O)N[C@@H](Cc2ccccc2)C(N)=O)C(C)C)NC(=O)[C@H](Cc2c[nH]c4ccccc24)NC(=O)[C@H](CCCCN)NC(=O)[C@H](Cc2c[nH]cn2)NC(=O)[C@H]([C@@H](C)O)NC(=O)[C@H](CCCNC(=N)N)NC(=O)[C@H](CO)NC3=O)NC(=O)[C@H](CCCCN)NC(=O)[C@H](CC(=O)O)NC(=O)[C@H](CC(N)=O)NC(=O)[C@H](CC(=O)O)NC(=O)[C@@H]2CCCN2C1=O` [compound 635] yielded an IC50 ([1]; use-dependent protocol, hNav1.3) of 0.38 µM and an IC50 ([2]; IonWorks Quattro, use-dependent protocol, hNav1.7) of 0.23 µM.

`CC[C@H](C)[C@@H]1NC(=O)[C@@H]2CSSC[C@@H]3NC(=O)[C@H](C(C)C)NC(=O)[C@H](CC(C)C)NC(=O)[C@H](CC(N)=O)NC(=O)[C@@H]4CCCN4C(=O)[C@H](CCCNC(=N)N)NC(=O)[C@H](CSSC[C@H](NC(=O)[C@@H](N)CC(=O)O)C(=O)N[C@@H](CC(C)C)C(=O)NCC(=O)N[C@@H](Cc4ccccc4)C(=O)N[C@@H](CCSC)C(=O)N[C@@H](CCCNC(=N)N)C(=O)N[C@@H](CCCCN)C(=O)N2)NC(=O)[C@H](CSSC[C@@H](C(=O)N[C@@H](CCCCN)C(=O)N[C@@H](Cc2ccc(O)cc2)C(=O)N[C@H](C(=O)N[C@@H](Cc2ccccc2)C(N)=O)C(C)C)NC(=O)[C@H](Cc2c[nH]c4ccccc24)NC(=O)[C@H](CCCCN)NC(=O)[C@H](Cc2c[nH]cn2)NC(=O)[C@H]([C@@H](C)O)NC(=O)[C@H](CCCCN)NC(=O)[C@H](CO)NC3=O)NC(=O)[C@H](CCCCN)NC(=O)[C@H](CC(=O)O)NC(=O)[C@H](CC(N)=O)NC(=O)[C@H](CC(=O)O)NC(=O)[C@@H]2CCCN2C1=O` [compound 53] (H-DCLGFMRKCIPDNDKCCRPNLVCSKTHKWCKYVF-NH2; disulfide 2-17, 9-23, 16-30) gave an IC50 ([2]; IonWorks Quattro, Use) of 0.38 µM.

With `CC[C@H](C)[C@@H]1NC(=O)[C@@H]2CSSC[C@@H]3NC(=O)[C@H](C(C)C)NC(=O)[C@H](CC(C)C)NC(=O)[C@H](CC(N)=O)NC(=O)[C@@H]4CCCN4C(=O)[C@H](CCCNC(=N)N)NC(=O)[C@H](CSSC[C@H](NC(=O)[C@@H](N)CC(=O)O)C(=O)N[C@@H](CCCNC(=N)N)C(=O)NCC(=O)N[C@@H](Cc4ccccc4)C(=O)N[C@@H](CCSC)C(=O)N[C@@H](CCCNC(=N)N)C(=O)N[C@@H](CCCCN)C(=O)N2)NC(=O)[C@H](CSSC[C@@H](C(=O)N[C@@H](CCCCN)C(=O)N[C@@H](Cc2ccc(O)cc2)C(=O)N[C@H](C(=O)N[C@@H](Cc2ccccc2)C(N)=O)C(C)C)NC(=O)[C@H](Cc2c[nH]c4ccccc24)NC(=O)[C@H](CCCCN)NC(=O)[C@H](Cc2c[nH]cn2)NC(=O)[C@H]([C@@H](C)O)NC(=O)[C@H](CCCNC(=N)N)NC(=O)[C@H](CO)NC3=O)NC(=O)[C@H](CCCCN)NC(=O)[C@H](CC(=O)O)NC(=O)[C@H](CC(N)=O)NC(=O)[C@H](CC(=O)O)NC(=O)[C@@H]2CCCN2C1=O` [SEQ ID NO: 155] (H-DCRGFMRKCIPDNDKCCRPNLVCSRTHKWCKYVF-NH2; disulfide 2-17, 9-23, 16-30) the IC50 [2] was 0.03 µM.

`CSCC[C@@H]1NC(=O)[C@H](Cc2ccccc2)NC(=O)CNC(=O)[C@H](CC(C)C)NC(=O)[C@@H](NC(=O)[C@@H](N)CC(=O)O)CSSC[C@@H]2NC(=O)[C@@H]3CSSC[C@@H](C(=O)N[C@@H](CCCCN)C(=O)N[C@@H](Cc4ccc(O)cc4)C(=O)N[C@H](C(=O)N[C@@H](Cc4ccccc4)C(N)=O)C(C)C)NC(=O)[C@H](Cc4c[nH]c5ccccc45)NC(=O)[C@H](CCCCN)NC(=O)[C@H](Cc4c[nH]cn4)NC(=O)[C@H]([C@@H](C)O)NC(=O)[C@H](CCCNC(=N)N)NC(=O)[C@H](CO)NC(=O)[C@H](CSSC[C@H](NC(=O)[C@H](CCCCN)NC(=O)[C@H](CCCNC(=N)N)NC1=O)C(=O)N[C@@H](CCC(=O)O)C(=O)N1CCC[C@H]1C(=O)N[C@@H](CC(=O)O)C(=O)N[C@@H](CC(N)=O)C(=O)N[C@@H](CC(=O)O)C(=O)N[C@@H](CCCCN)C(=O)N3)NC(=O)[C@H](C(C)C)NC(=O)[C@H](CC(C)C)NC(=O)[C@H](CC(N)=O)NC(=O)[C@@H]1CCCN1C(=O)[C@H](CCCNC(=N)N)NC2=O` [SEQ ID NO: 146, [Glu10]GpTx-1] (H-DCLGFMRKCEPDNDKCCRPNLVCSRTHKWCKYVF-NH2; disulfide 2-17, 9-23, 16-30) was tested, and the IC50 ([2]; IonWorks Quattro, Use) was 0.09 µM.

Compound `CSCC[C@@H]1NC(=O)[C@H](Cc2ccccc2)NC(=O)CNC(=O)[C@H](CC(C)C)NC(=O)[C@@H](NC(=O)[C@@H](N)CC(=O)O)CSSC[C@@H]2NC(=O)[C@@H]3CSSC[C@@H](C(=O)N[C@@H](CCCCN)C(=O)N[C@@H](Cc4ccc(O)cc4)C(=O)N[C@H](C(=O)N[C@@H](Cc4ccccc4)C(N)=O)C(C)C)NC(=O)[C@H](Cc4c[nH]c5ccccc45)NC(=O)[C@H](CCCCN)NC(=O)[C@H](Cc4c[nH]cn4)NC(=O)[C@H]([C@@H](C)O)NC(=O)[C@H](CCCNC(=N)N)NC(=O)[C@H](CO)NC(=O)[C@H](CSSC[C@H](NC(=O)[C@H](CCCCN)NC(=O)[C@H](CCCNC(=N)N)NC1=O)C(=O)N[C@@H](CO)C(=O)N1CCC[C@H]1C(=O)N[C@@H](CC(=O)O)C(=O)N[C@@H](CC(N)=O)C(=O)N[C@@H](CC(=O)O)C(=O)N[C@@H](CCCCN)C(=O)N3)NC(=O)[C@H](C(C)C)NC(=O)[C@H](CC(C)C)NC(=O)[C@H](CC(N)=O)NC(=O)[C@@H]1CCCN1C(=O)[C@H](CCCNC(=N)N)NC2=O` [compound 305] (H-DCLGFMRKCSPDNDKCCRPNLVCSRTHKWCKYVF-NH2; disulfide 2-17, 9-23, 16-30) has an IC50 ([2]; IonWorks Quattro, Use) of 0.05 µM.

Reference: patent US9340590B2 (priority 2011, dated 2016)
